Key:
Assay in all cases: Oxidase activity (4-AAP/peroxidase, H2O2 production at 510 nm), Michaelis-Menten kinetics with glucose
[1] = target: T1, MS59 carbohydrate oxidase from sunflower (Helianthus annuus), SEQ ID NO: 16 (Helianthus annuus, UniProt A0A9K3EIF7); format: biochemical, sunflower (Helianthus annuus cv. zebulon); conditions: substrate glucose; 50 mM potassium phosphate pH 7.0, 25 μM FAD; 17 ng MS59 per assay; per mg protein
T1 sequence (A0A9K3EIF7 29-538): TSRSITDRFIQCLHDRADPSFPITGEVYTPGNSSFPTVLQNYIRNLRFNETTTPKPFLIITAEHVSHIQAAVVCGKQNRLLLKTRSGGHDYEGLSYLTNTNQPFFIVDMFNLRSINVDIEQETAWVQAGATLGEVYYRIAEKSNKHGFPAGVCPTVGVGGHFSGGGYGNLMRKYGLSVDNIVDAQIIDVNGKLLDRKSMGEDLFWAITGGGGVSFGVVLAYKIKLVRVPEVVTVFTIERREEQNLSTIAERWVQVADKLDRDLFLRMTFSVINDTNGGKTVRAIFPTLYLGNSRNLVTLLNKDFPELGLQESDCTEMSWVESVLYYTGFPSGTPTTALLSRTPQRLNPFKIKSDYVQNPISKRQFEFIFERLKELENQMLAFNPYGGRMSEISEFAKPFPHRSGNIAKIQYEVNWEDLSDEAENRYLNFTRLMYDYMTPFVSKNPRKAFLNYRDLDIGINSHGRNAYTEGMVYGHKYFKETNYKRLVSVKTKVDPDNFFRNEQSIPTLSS
Experimental: (§1) Oxidase activity was measured utilizing the reagent 4-amino-antipyrine (4-AAP), based on Gallo, 1981 (Gallo, Methods in Enzymology, 71:665-668, 1981). A reaction volume of 500 μl contained 50 mM potassium phosphate buffer pH 7.0, 25 μM FAD, 10 mM NaN3, 0.01% Triton X-100, 6 mM 2,4,6,tribromohydroxybenzoic acid, 2 mM 4-AAP, and 10 units horseradish peroxidase. Hydrogenperoxide production was measured at 510 nm. Known amounts of hydrogen peroxide were included for calibration.

[2] = target: T2, WL64 carbohydrate oxidase from lettuce (Lactuca sativa), SEQ ID NO: 58 (Lactuca sativa, UniProt Q8SA60); format: biochemical, lettuce (Lactuca sativa cv. Lollo bionda); conditions: substrate glucose; 50 mM potassium phosphate pH 7.0, 25 μM FAD; 29 ng WL64 per assay; per mg protein
T2 sequence (Q8SA60 28-540): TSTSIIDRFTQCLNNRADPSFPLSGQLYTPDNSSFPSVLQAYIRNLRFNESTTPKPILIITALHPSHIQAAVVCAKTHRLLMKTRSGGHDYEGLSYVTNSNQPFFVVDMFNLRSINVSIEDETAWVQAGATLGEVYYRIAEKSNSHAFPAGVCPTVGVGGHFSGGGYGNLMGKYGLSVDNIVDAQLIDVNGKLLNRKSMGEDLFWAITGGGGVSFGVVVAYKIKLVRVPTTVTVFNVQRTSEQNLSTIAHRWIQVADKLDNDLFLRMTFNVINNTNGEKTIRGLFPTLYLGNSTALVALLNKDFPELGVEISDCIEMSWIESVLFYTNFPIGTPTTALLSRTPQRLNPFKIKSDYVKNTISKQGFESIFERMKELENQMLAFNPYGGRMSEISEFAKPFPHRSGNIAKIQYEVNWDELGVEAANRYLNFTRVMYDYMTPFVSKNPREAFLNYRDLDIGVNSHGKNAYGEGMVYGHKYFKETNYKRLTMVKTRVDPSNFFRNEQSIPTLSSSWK
Experimental: as §1

[3] = target: glucose oxidase (GOX) from Aspergillus niger (Sigma, G 2133) (Aspergillus niger, UniProt P13006); format: biochemical; conditions: substrate glucose, 50 mM potassium phosphate pH 7.0, 25 μM FAD, 45 ng GOX per assay
Experimental: as §1

Chain of glucose oxidase (GOX) from Aspergillus niger (Sigma, G 2133) (P13006 17-605): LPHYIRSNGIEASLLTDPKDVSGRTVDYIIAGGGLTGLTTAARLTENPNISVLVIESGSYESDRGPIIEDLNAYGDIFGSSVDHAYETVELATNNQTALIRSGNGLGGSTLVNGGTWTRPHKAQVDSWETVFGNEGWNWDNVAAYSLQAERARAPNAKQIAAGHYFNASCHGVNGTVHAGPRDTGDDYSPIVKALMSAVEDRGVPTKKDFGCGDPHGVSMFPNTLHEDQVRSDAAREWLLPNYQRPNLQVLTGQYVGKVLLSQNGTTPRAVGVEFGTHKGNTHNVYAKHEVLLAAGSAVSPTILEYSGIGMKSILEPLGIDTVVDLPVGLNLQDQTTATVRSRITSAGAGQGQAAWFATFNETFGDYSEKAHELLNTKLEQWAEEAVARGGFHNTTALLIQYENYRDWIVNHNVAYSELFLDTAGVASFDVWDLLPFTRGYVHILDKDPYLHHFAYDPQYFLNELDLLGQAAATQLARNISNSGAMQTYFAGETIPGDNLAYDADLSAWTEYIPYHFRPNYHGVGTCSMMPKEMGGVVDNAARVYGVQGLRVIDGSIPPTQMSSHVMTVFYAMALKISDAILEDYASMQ

Compound: OC[C@H]1OC(O)[C@H](O)[C@@H](O)[C@@H]1O (stereo partly shown) [Glucose, glucose]
- Vmax [1]: 16.8 μmolH2O2/min/mg
- Vmax [2]: 5.7 μmolH2O2/min/mg
- Km ([3]; Lineweaver-Burk): 359 µM
- Vmax ([3]; per mg protein): 9.7 μmolH2O2/min/mg

Source: patent US6864076B2, “Antifungal proteins, DNA coding therefore, and hosts incorporating same” (Syngenta Mogen B.V., priority 1997, dated 2005)
